What was measured:
endogenous TFEB = test: TFEB nuclear translocation, immunocytochemistry high-content imaging; type: cell-based; details: PKIS2 primary screening
endogenous TFE3 = test: TFE3 nuclear translocation, immunocytochemistry high-content imaging; type: cell-based; details: PKIS2 primary screening
SH-SY5Y cells [1] = details: PKIS2 primary screening; for DQ Intensity: DQ Red BSA intensity; for DQ Spot: DQ Red BSA spot count
From the text: The PKIS2 Library was supplied by The Structural Genomics Consortium at the University of North Carolina at Chapel Hill.

SH-SY5Y cells [2] = test: AK (adenylate kinase) release ToxiLight cytotoxicity assay; details: PKIS2 primary screening; also: reference of the scale not given here
SH-SY5Y cells [3] = test: Nuclear count from microscopy images (cellular growth and toxicity); details: PKIS2 primary screening; also: reference of the scale not given here
For DQ Intensity in this document: reference of the scale not given here.
For DQ Spot in this document: reference of the scale not given here.

Row | Compound | TFEB % (endogenous TFEB) [%] | TFE3 % (endogenous TFE3) [%] | DQ Intensity (SH-SY5Y cells [1]) | DQ Spot (SH-SY5Y cells [1]) | AK (SH-SY5Y cells [2]) | Nuclear Count (SH-SY5Y cells [3])
1 | COc1ccc(Nc2nccc(-c3cccc(NC(=O)c4cc5cc(F)ccc5[nH]4)c3)n2)cc1 [GSK1229782] | 2.71 | 14.29 | 93.16 | 110.99 | 91.24 | 89.95
2 | COc1ccc(CNC(=O)NC2CCN(c3ccnc(Nc4ccc(F)cc4)n3)C2)cc1 (stereo not drawn) [GSK1379706] | 2.94 | 11.64 | 67.21 | 81.58 | 89.40 | 119.74
3 | N#Cc1cccc(C(=O)NC2CCN(c3ccnc(Nc4ccc(F)cc4)n3)C2)c1 (stereo not drawn) [GSK1379708] | 6.02 | 11.35 | 97.27 | 112.33 | 99.36 | 107.86
4 | CC(=O)c1cccc(NC(=O)NC2CCN(c3ccnc(Nc4ccc(F)cc4)n3)C2)c1 (stereo not drawn) [GSK1379710] | 4.15 | 16.11 | 124.22 | 115.02 | 70.15 | 98.98
5 | COC(=O)C(NC(=O)NC1CCN(c2ccnc(Nc3ccc(F)cc3)n2)C1)c1ccccc1 (stereo not drawn) [GSK1379712] | 9.98 | 6.91 | 132.02 | 102.90 | 111.30 | 98.27
6 | CC(C(=O)NC1CCN(c2ccnc(Nc3ccc(F)cc3)n2)C1)c1ccc(Cl)cc1 (stereo not drawn) [GSK1379713] | 6.54 | 10.33 | 153.18 | 124.60 | 94.01 | 84.41
7 | COC(=O)C(Cc1ccccc1)NC(=O)NC1CCN(c2ccnc(Nc3ccc(F)cc3)n2)C1 (stereo not drawn) [GSK1379714] | 4.19 | 7.75 | 97.62 | 115.84 | 95.90 | 110.40
8 | CCCc1ccc(S(=O)(=O)NC2CCN(c3ccnc(Nc4ccc(F)cc4)n3)C2)cc1 (stereo not drawn) [GSK1379715] | 6.97 | 11.31 | 80.29 | 105.29 | 100.57 | 97.10
9 | O=C(NC1CCN(c2ccnc(Nc3ccc(F)cc3)n2)C1)c1cc2ccccc2s1 (stereo not drawn) [GSK1379716] | 2.96 | 24.94 | 72.95 | 96.75 | 79.19 | 86.00
10 | Cn1cncc1C(=O)NC1CCN(c2ccnc(Nc3ccc(F)cc3)n2)C1 (stereo not drawn) [GSK1379717] | 3.86 | 10.47 | 84.19 | 97.80 | 113.98 | 85.90
11 | Cc1ccc(C)c(NC(=O)NC2CCN(c3ccnc(Nc4ccc(F)cc4)n3)C2)c1 (stereo not drawn) [GSK1379720] | 6.06 | 10.49 | 115.10 | 109.75 | 98.80 | 92.38
12 | COc1cccc(NC(=O)NC2CCN(c3ccnc(Nc4ccc(F)cc4)n3)C2)c1 (stereo not drawn) [GSK1379721] | 3.00 | 13.36 | 94.47 | 102.23 | 103.41 | 112.40
13 | O=C(Nc1ccccc1F)NC1CCN(c2ccnc(Nc3ccc(F)cc3)n2)C1 (stereo not drawn) [GSK1379722] | 14.40 | 10.71 | 129.34 | 121.71 | 94.79 | 114.62
14 | COc1cccc(CNC(=O)NC2CCN(c3ccnc(Nc4ccc(F)cc4)n3)C2)c1 (stereo not drawn) [GSK1379723] | 8.63 | 22.56 | 104.41 | 106.33 | 98.00 | 83.60
15 | O=C(Nc1ccc2c(c1)OCO2)NC1CCN(c2ccnc(Nc3ccc(F)cc3)n2)C1 (stereo not drawn) [GSK1379724] | 3.86 | 7.39 | 90.09 | 99.32 | 104.22 | 89.10
16 | COC(=O)c1cccc(NC(=O)NC2CCN(c3ccnc(Nc4ccc(F)cc4)n3)C2)c1 (stereo not drawn) [GSK1379725] | 7.57 | 21.26 | 80.47 | 88.32 | 90.74 | 95.32
17 | COc1ccc(CNC(=O)NC2CCN(c3ccnc(Nc4ccc(OC)cc4)n3)C2)cc1 (stereo not drawn) [GSK1379727] | 4.74 | 11.01 | 79.60 | 81.20 | 96.08 | 118.16

Row | Compound | TFEB % (endogenous TFEB) [%] | TFE3 % (endogenous TFE3) [%] | DQ Intensity (SH-SY5Y cells [1]) | DQ Spot (SH-SY5Y cells [1]) | AK (SH-SY5Y cells [2]) | Nuclear Count (SH-SY5Y cells [3])
18 | COc1ccc(Nc2nccc(N3CCC(NS(=O)(=O)c4ccc(NC(C)=O)cc4)C3)n2)cc1 (stereo not drawn) [GSK1379729] | 5.22 | 16.51 | 76.81 | 100.23 | 69.35 | 90.61
19 | COc1ccc(Nc2nccc(N3CCC(NC(=O)c4cccc(C#N)c4)C3)n2)cc1 (stereo not drawn) [GSK1379730] | 9.20 | 13.54 | 67.56 | 85.55 | 125.87 | 108.33
20 | COc1ccc(Nc2nccc(N3CCC(NC(=O)Nc4cccc(C(C)=O)c4)C3)n2)cc1 (stereo not drawn) [GSK1379731] | 9.04 | 14.27 | 109.14 | 92.48 | 78.89 | 122.85
21 | COc1ccc(Nc2nccc(N3CCC(NC(=O)c4cccc(NC(C)=O)c4)C3)n2)cc1 (stereo not drawn) [GSK1379732] | 5.92 | 6.22 | 114.89 | 106.49 | 83.81 | 135.73
22 | COc1ccc(Nc2nccc(N3CCC(NC(=O)C(C)c4ccc(Cl)cc4)C3)n2)cc1 (stereo not drawn) [GSK1379735] | 5.13 | 11.71 | 99.92 | 94.04 | 70.53 | 119.80
23 | CCCc1ccc(S(=O)(=O)NC2CCN(c3ccnc(Nc4ccc(OC)cc4)n3)C2)cc1 (stereo not drawn) [GSK1379737] | 5.95 | 12.75 | 83.70 | 93.35 | 106.07 | 116.08
24 | COc1ccc(Nc2nccc(N3CCC(NC(=O)c4cc5ccccc5s4)C3)n2)cc1 (stereo not drawn) [GSK1379738] | 5.33 | 9.69 | 52.05 | 80.56 | 106.01 | 101.04
25 | COc1ccc(Nc2nccc(N3CCC(NC(=O)Nc4cc(C)ccc4C)C3)n2)cc1 (stereo not drawn) [GSK1379741] | 3.59 | 9.28 | 91.14 | 90.28 | 100.67 | 115.70
26 | COc1ccc(Nc2nccc(N3CCC(NC(=O)Nc4cccc(OC)c4)C3)n2)cc1 (stereo not drawn) [GSK1379742] | 8.93 | 16.87 | 119.16 | 99.38 | 126.78 | 103.65
27 | COc1ccc(Nc2nccc(N3CCC(NC(=O)Nc4ccc5c(c4)OCO5)C3)n2)cc1 (stereo not drawn) [GSK1379745] | 10.83 | 19.51 | 69.10 | 77.91 | 76.28 | 86.22
28 | COC(=O)c1cccc(NC(=O)NC2CCN(c3ccnc(Nc4ccc(OC)cc4)n3)C2)c1 (stereo not drawn) [GSK1379746] | 6.50 | 11.39 | 97.94 | 97.45 | 99.00 | 105.57
29 | COc1ccc(CNC(=O)NC2CCN(c3ccnc(Nc4cc(OC)c(OC)c(OC)c4)n3)C2)cc1 (stereo not drawn) [GSK1379748] | 3.68 | 7.30 | 92.45 | 91.07 | 124.35 | 99.04
30 | COc1cc(Nc2nccc(N3CCC(NC(=O)c4cccc(C#N)c4)C3)n2)cc(OC)c1OC (stereo not drawn) [GSK1379751] | 5.62 | 13.31 | 80.41 | 103.20 | 124.29 | 92.57
31 | COc1cc(Nc2nccc(N3CCC(NC(=O)Nc4cccc(C(C)=O)c4)C3)n2)cc(OC)c1OC (stereo not drawn) [GSK1379753] | 2.90 | 10.72 | 96.48 | 93.76 | 112.38 | 116.36
32 | COc1cc(Nc2nccc(N3CCC(NC(=O)c4cccc(NC(C)=O)c4)C3)n2)cc(OC)c1OC (stereo not drawn) [GSK1379754] | 3.28 | 7.67 | 91.71 | 95.86 | 115.02 | 143.24
33 | COc1cc(Nc2nccc(N3CCC(NC(=O)C(C)c4ccc(Cl)cc4)C3)n2)cc(OC)c1OC (stereo not drawn) [GSK1379757] | 5.14 | 15.24 | 100.22 | 95.49 | 97.54 | 80.40
34 | COc1cc(Nc2nccc(N3CCC(NC(=O)c4cc5ccccc5s4)C3)n2)cc(OC)c1OC (stereo not drawn) [GSK1379760] | 5.00 | 8.33 | 67.71 | 93.69 | 89.79 | 107.53
